From the NIST ThermoML archive (doi:10.1021/je100131c)

How the values were obtained:
[1] = molar heat capacity at constant pressure; details: 101.33 kPa
[2] = Adiabatic calorimetry

CCCn1cc[n+](C)c1.N[C@@H](CCC(=O)O)C(=O)[O-]
[1]
Details | molar heat capacity at constant pressure [J/K/mol]
86.07 K, Glass | 150.25
88.05 K, Glass | 152.63
90.01 K, Glass | 154.9
91.97 K, Glass | 157.5
93.95 K, Glass | 159.49
95.92 K, Glass | 162.14
97.89 K, Glass | 164.13
99.85 K, Glass | 166.66
102.59 K, Glass | 169.25
105.33 K, Glass | 173.04
107.28 K, Glass | 175.8
109.24 K, Glass | 177.98
111.23 K, Glass | 179.21
113.2 K, Glass | 181.07
115.14 K, Glass | 183.75
117.1 K, Glass | 185.58
119.09 K, Glass | 186.96
121.06 K, Glass | 188.82
123 K, Glass | 191.13
124.97 K, Glass | 193.29
126.97 K, Glass | 194.36
128.94 K, Glass | 196.26
130.9 K, Glass | 199.43
132.84 K, Glass | 200.78
134.79 K, Glass | 203.07
136.78 K, Glass | 204.43
138.75 K, Glass | 206.24
140.7 K, Glass | 207.69
142.65 K, Glass | 208.89
144.61 K, Glass | 211.05
146.6 K, Glass | 212.89
148.57 K, Glass | 215.15
150.53 K, Glass | 216.91
153.04 K, Glass | 219.16
155.56 K, Glass | 221.42
157.53 K, Glass | 223.77
159.49 K, Glass | 225.64
161.44 K, Glass | 227
163.38 K, Glass | 228.24
165.3 K, Glass | 230.3
167.27 K, Glass | 232.18
169.28 K, Glass | 234.1
171.28 K, Glass | 236.74
173.27 K, Glass | 237.97
175.25 K, Glass | 240.31
177.21 K, Glass | 242.87
179.17 K, Glass | 243.7
181.11 K, Glass | 245.51
183.05 K, Glass | 248.04
185.03 K, Glass | 250.2
187.05 K, Glass | 252.7
189.06 K, Glass | 255.28
191.06 K, Glass | 257.14
193.05 K, Glass | 259.68
195.03 K, Glass | 262.63
197.01 K, Glass | 264.18
198.97 K, Glass | 266.54
200.93 K, Glass | 268.59
203.31 K, Glass | 271.02
205.67 K, Glass | 273.69
207.65 K, Glass | 277.76
209.69 K, Glass | 281.69
211.73 K, Glass | 283.31
213.76 K, Glass | 284.6
215.8 K, Glass | 286.92
217.82 K, Glass | 290.11
219.85 K, Glass | 294.21
221.88 K, Glass | 296.62
223.91 K, Glass | 297.46
225.94 K, Glass | 299.66
227.97 K, Glass | 300.73
229.99 K, Glass | 302.48
231.96 K, Glass | 310.06
234 K, Glass | 323.45
236.07 K, Glass | 333.04
238.02 K, Glass | 358.09
239.86 K, Glass | 407.73
242.01 K, Glass | 462.82
244.24 K, Liquid | 471
246.18 K, Liquid | 472.35
248.12 K, Liquid | 473.61
250.04 K, Liquid | 475.54
251.97 K, Liquid | 476.41
253.9 K, Liquid | 477.37
255.89 K, Liquid | 478.45
257.87 K, Liquid | 480.19
259.86 K, Liquid | 481.42
261.91 K, Liquid | 483.73
263.96 K, Liquid | 485.28
266 K, Liquid | 486.86
268.04 K, Liquid | 487.89
270.07 K, Liquid | 489.67
272.09 K, Liquid | 491.51
274.12 K, Liquid | 493.23
276.13 K, Liquid | 495.7
278.15 K, Liquid | 497.67
280.16 K, Liquid | 498.94
282.16 K, Liquid | 501.05
284.17 K, Liquid | 503.38
286.16 K, Liquid | 505.39
288.12 K, Liquid | 507.35
290.06 K, Liquid | 509.26
292.08 K, Liquid | 511.23
294.05 K, Liquid | 513.1
296.01 K, Liquid | 514.91
297.97 K, Liquid | 516.83
299.93 K, Liquid | 518.67
301.88 K, Liquid | 520.07
303.82 K, Liquid | 521.96
305.77 K, Liquid | 523.25
307.7 K, Liquid | 524.77
309.64 K, Liquid | 526.25
311.57 K, Liquid | 527.31
313.5 K, Liquid | 528.82
315.43 K, Liquid | 530.52
317.41 K, Liquid | 531.97
319.47 K, Liquid | 533.47
321.52 K, Liquid | 534.99
323.57 K, Liquid | 536.53
325.61 K, Liquid | 538.93
327.65 K, Liquid | 539.74
329.68 K, Liquid | 541.83
331.71 K, Liquid | 543.17
333.73 K, Liquid | 544.98
335.75 K, Liquid | 546.87
337.76 K, Liquid | 549.25
339.77 K, Liquid | 550.76
341.77 K, Liquid | 553.01
343.77 K, Liquid | 554.52
345.76 K, Liquid | 557
347.75 K, Liquid | 559.26
349.74 K, Liquid | 561.22
351.73 K, Liquid | 563.15
353.72 K, Liquid | 565.12
355.7 K, Liquid | 566.91
357.68 K, Liquid | 568.06

Details | Glass transition temperature [°C]
[2] | -33
